# Publication PMC8799717, “Pharmacological targeting PIKfyve and tubulin as an effective treatment strategy for double-hit lymphoma” (Cell Death Discovery, 2022)
# Experiments:
# Assay in all cases: biochemical
# Set-up in all cases: KINOMEscan active-site-directed competition binding panel, 468 kinases, percent of DMSO control at 1 uM
# Conditions in all cases: KINOMEscan binding, percent of DMSO control; read-out: Ctrl%
# ADCK3 = molecular target: T1, ADCK3 (Homo sapiens, UniProt Q8NI60)
# T1 construct: gene COQ8A
# CLK4 = CLK4 (Homo sapiens, UniProt Q9HAZ1)
# Sequence of CLK4 (Q9HAZ1 whole entry): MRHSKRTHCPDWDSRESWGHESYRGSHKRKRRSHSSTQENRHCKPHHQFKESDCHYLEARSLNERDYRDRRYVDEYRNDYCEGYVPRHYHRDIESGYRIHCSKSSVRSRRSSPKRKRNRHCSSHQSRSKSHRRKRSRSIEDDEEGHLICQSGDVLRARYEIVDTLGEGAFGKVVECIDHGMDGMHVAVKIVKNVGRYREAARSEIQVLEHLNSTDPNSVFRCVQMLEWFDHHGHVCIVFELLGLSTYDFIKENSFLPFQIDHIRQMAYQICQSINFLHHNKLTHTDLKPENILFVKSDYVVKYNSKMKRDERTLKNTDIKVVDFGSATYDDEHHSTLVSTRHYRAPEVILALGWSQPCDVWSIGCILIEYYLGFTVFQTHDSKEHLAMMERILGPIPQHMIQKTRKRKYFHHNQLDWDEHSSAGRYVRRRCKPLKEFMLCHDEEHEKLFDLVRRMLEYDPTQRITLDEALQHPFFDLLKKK
# DYRK2 = DYRK2 (Homo sapiens, UniProt Q92630)
# EGFR = EGFR (Homo sapiens, UniProt P00533)
# ERK4 = molecular target: T2, ERK4 (Homo sapiens, UniProt P31152)
# T2 construct: gene MAPK4
# FLT4 = FLT4 (Homo sapiens, UniProt P35916)
# MAK = MAK (Homo sapiens, UniProt P20794)
# MERTK = MERTK (Homo sapiens, UniProt Q12866)
# Sequence of MERTK (Q12866 whole entry): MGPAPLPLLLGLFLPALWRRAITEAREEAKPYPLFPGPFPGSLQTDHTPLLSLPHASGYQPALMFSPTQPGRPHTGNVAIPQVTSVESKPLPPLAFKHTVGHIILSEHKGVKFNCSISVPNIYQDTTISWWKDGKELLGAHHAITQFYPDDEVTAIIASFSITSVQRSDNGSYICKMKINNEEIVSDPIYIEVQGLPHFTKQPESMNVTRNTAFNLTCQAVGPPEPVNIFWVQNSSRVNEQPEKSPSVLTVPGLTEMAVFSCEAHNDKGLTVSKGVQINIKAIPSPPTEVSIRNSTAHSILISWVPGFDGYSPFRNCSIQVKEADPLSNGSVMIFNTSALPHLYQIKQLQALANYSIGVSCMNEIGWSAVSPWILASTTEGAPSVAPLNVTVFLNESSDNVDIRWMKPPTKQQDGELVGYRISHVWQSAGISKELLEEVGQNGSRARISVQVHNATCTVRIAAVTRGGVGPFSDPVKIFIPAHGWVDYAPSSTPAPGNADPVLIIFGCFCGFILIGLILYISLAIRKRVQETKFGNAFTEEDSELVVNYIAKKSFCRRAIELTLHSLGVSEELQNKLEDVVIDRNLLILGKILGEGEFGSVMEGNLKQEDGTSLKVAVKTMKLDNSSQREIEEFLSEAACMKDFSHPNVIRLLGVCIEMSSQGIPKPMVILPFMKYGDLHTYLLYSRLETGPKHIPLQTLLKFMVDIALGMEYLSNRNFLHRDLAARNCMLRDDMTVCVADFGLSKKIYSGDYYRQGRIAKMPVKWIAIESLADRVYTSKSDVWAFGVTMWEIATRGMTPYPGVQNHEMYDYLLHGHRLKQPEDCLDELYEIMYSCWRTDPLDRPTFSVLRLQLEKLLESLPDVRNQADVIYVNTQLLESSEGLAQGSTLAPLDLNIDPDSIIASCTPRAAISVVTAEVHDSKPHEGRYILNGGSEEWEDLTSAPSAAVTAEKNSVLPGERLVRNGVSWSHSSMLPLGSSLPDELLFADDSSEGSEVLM
# MET = MET (Homo sapiens, UniProt P08581)
# MST1 = molecular target: T3, MST1 (Homo sapiens, UniProt Q13043)
# T3 construct: gene STK4
# T3 sequence (Q13043 whole entry): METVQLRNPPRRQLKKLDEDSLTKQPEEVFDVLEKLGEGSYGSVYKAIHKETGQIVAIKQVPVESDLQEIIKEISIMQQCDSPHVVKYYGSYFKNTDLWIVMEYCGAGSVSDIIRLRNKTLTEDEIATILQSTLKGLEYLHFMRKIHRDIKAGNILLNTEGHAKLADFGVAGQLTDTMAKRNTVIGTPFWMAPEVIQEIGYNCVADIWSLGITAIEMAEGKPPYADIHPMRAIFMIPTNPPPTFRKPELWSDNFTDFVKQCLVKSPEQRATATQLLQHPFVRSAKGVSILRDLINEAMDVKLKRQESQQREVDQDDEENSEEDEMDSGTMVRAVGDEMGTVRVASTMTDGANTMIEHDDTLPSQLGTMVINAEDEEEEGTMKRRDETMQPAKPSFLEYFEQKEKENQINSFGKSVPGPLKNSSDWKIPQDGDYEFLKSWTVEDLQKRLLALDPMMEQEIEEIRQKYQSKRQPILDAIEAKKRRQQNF
# PCTK1 = molecular target: T4, PCTK1 (Homo sapiens, UniProt Q00536)
# T4 construct: gene CDK16
# T4 sequence (Q00536 whole entry): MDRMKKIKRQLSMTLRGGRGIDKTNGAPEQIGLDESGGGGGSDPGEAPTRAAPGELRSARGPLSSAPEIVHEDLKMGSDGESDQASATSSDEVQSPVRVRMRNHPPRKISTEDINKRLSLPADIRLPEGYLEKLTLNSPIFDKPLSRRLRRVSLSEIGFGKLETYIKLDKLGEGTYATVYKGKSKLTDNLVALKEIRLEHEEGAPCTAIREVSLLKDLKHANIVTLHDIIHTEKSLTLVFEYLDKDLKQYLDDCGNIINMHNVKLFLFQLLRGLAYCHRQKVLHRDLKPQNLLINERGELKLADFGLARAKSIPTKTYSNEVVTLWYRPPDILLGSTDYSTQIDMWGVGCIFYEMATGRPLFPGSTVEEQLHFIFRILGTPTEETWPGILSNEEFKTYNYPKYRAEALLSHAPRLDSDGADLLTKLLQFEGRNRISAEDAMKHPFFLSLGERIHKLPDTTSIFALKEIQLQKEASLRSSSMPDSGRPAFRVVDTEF
# PCTK2 = molecular target: T5, PCTK2 (Homo sapiens, UniProt Q00537)
# T5 construct: gene CDK17
# PCTK3 = molecular target: T6, PCTK3 (Homo sapiens, UniProt Q07002)
# T6 construct: gene CDK18
# PKAC-beta = molecular target: T7, PKAC-beta (Homo sapiens, UniProt P22694)
# T7 construct: gene PRKACB
# PLK1 = PLK1 (Homo sapiens, UniProt P53350)
# PRKD3 = PRKD3 (Homo sapiens, UniProt O94806)
# Sequence of PRKD3 (O94806 whole entry): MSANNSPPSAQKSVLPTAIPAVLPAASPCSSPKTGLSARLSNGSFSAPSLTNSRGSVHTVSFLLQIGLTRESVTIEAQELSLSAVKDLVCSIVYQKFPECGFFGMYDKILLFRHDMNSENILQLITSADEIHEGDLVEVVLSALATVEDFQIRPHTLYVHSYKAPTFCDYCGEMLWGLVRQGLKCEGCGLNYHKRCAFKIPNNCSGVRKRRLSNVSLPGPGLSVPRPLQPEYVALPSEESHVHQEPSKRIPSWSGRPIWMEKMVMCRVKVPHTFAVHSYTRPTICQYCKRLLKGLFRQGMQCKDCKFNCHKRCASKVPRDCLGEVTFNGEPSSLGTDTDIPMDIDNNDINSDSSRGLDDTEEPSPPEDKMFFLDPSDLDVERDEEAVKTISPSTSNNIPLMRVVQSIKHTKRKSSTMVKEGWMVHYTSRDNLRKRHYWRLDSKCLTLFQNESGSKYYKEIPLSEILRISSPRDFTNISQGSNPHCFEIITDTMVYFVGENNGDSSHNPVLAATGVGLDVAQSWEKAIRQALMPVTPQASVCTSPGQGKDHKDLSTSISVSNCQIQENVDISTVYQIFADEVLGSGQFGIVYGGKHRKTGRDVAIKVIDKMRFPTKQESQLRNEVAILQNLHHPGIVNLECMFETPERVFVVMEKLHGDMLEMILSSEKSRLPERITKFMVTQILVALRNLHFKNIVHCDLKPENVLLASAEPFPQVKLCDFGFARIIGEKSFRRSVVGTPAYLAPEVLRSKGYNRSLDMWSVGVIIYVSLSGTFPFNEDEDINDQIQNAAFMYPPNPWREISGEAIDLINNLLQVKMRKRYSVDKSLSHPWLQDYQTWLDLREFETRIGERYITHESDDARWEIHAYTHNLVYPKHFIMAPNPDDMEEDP
# PRKR = molecular target: T8, PRKR (Homo sapiens, UniProt P19525)
# T8 construct: gene EIF2AK2
# RET(M918T) = RET(M918T) (Homo sapiens, UniProt P07949, M918T)
# SGK = molecular target: T9, SGK (Homo sapiens, UniProt O00141)
# T9 construct: gene SGK1
# T9 sequence (O00141 whole entry): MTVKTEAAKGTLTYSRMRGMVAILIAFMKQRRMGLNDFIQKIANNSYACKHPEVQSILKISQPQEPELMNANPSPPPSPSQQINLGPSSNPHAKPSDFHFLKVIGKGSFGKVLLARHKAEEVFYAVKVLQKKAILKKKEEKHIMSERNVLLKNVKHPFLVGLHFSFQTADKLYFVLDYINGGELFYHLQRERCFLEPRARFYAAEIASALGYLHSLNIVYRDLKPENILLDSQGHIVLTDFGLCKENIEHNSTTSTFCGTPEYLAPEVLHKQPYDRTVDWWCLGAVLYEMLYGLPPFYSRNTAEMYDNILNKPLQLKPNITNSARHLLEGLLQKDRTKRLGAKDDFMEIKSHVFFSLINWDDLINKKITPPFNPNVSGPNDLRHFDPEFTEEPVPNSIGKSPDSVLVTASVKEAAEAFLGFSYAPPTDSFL
# SRPK3 = SRPK3 (Homo sapiens, UniProt Q9UPE1)
# TAOK2 = TAOK2 (Homo sapiens, UniProt Q9UL54)
# Sequence of TAOK2 (Q9UL54 whole entry): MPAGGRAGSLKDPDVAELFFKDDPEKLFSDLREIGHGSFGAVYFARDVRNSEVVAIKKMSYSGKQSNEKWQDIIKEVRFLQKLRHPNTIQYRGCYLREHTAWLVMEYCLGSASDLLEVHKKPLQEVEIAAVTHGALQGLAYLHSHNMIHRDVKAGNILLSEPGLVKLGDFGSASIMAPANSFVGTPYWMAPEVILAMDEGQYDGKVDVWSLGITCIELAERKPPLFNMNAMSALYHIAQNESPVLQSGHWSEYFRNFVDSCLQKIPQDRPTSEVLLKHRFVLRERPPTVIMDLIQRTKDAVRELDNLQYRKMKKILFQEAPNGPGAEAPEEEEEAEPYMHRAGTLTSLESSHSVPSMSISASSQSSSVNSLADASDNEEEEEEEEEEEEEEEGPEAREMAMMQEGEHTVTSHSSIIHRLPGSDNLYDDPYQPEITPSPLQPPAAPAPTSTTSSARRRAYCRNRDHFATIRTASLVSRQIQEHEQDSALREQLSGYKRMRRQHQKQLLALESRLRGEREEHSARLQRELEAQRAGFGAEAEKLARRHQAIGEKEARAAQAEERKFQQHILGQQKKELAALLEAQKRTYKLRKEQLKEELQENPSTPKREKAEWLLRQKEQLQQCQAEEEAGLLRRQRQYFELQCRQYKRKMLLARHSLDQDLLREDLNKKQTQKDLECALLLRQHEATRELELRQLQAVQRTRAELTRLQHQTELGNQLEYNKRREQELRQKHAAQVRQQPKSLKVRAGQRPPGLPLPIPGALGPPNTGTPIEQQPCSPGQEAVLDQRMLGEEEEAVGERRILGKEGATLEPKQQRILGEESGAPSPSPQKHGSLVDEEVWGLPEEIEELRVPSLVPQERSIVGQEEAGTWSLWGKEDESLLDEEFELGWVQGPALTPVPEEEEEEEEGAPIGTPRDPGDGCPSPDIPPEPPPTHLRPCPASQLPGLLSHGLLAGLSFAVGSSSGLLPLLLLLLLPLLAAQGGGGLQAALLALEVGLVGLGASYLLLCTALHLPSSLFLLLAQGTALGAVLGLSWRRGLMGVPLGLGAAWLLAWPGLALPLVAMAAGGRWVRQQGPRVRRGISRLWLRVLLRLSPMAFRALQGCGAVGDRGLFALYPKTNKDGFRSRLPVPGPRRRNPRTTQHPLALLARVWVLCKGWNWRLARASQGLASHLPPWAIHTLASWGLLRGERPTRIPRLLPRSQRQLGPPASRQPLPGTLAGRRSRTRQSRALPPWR
# TGFBR2 = TGFBR2 (Homo sapiens, UniProt P37173)
# TRKB = molecular target: T10, TRKB (Homo sapiens, UniProt Q16620)
# T10 construct: gene NTRK2
# VRK2 = VRK2 (Homo sapiens, UniProt Q86Y07)
smiles,measurement,setting,value
Cc1ccc(NC(=O)c2cccc(C(F)(F)F)c2)cc1Nc1cc(-c2cccnc2)nc2[nH]ccc12 [HZX-02-059],remaining binding at 1 µM,ADCK3,97%
same,remaining binding at 1 µM,CLK4,94%
same,remaining binding at 1 µM,DYRK2,88%
same,remaining binding at 1 µM,EGFR,67%
same,remaining binding at 1 µM,ERK4,99%
same,remaining binding at 1 µM,FLT4,94%
same,remaining binding at 1 µM,MAK,95%
same,remaining binding at 1 µM,MERTK,86%
same,remaining binding at 1 µM,MET,94%
same,remaining binding at 1 µM,MST1,74%
same,remaining binding at 1 µM,PCTK1,100%
same,remaining binding at 1 µM,PCTK2,100%
same,remaining binding at 1 µM,PCTK3,84%
same,remaining binding at 1 µM,PKAC-beta,95%
same,remaining binding at 1 µM,PLK1,100%
same,remaining binding at 1 µM,PRKD3,100%
same,remaining binding at 1 µM,PRKR,95%
same,remaining binding at 1 µM,RET(M918T),99%
same,remaining binding at 1 µM,SGK,100%
same,remaining binding at 1 µM,SRPK3,93%
same,remaining binding at 1 µM,TAOK2,98%
same,remaining binding at 1 µM,TGFBR2,90%
same,remaining binding at 1 µM,TRKB,100%
same,remaining binding at 1 µM,VRK2,100%
